Source: patent US20060127505A1, “Anti-inflammatory formulations” (priority 2002, published 2006)
Entries after “also recorded” stand apart in the source; their conditions may differ.

Tests used:
cAMP-phosphodiesterase = conditions: cited from earlier work
eosinophils = conditions: oral treatment; histamine-induced guinea pig eye model; cited from earlier work
[1] = system: CD3+CD25+ cells in human PBMC; assay: T lymphocyte activation (CD3+CD25+) in PHA-stimulated PBMC of asthma patients (Example 6); assay type: cell-based; conditions: PHA 50 μg/ml, 24 hours
Procedure: Experiments were carried out to determine whether formulations based on the platelet activating factor receptor (PAFR) antagonist and free radical scavenger Ginkgolide B (GB) in combination with the antioxidant carotenoid astaxanthin (ASX) suppress T cell activation in the same dose range as two commonly-used antihistamines: cetirizine dihydrochloride (CTZ/Zyrtec) and azelastine ([…]). […] Results are reported as stimulation indices (SI) of % CD3+CD25+ cells in cultures treated with PHA alone to % CD3+CD25+ cells in each drug-supplemented culture. […] Subjects for this study included 12 patients diagnosed with atopic asthma, 7 male and 5 female, ranging in age from 21 to 40 years (mean 28±1.8 years). Disease duration ranged from 2 to 12 years. Atopy was defined on the basis of one or more positive skin prick tests to a range of 20 allergens. None of the patients had received systemic therapy for at least 6 weeks prior to blood collection. The mean serum IgE was 335 (170-480) IU/ml. Venous blood for each subject was collected in polyethylene tubes containing EDTA during a one hour morning time interval. PBMC were separated by Ficoll-paque (Pharmacia, Uppsala, Sweden) density gradient centrifugation. Cells were washed and suspended in RPMI 1640 medium (Gibco BRL, Gaithersburg, Md.) at density of 1×10^6 cells/ml. PBMC were stimulated with 50 μg/ml Phytohemaglutinin (PHA) (Sigma Immunopharmaceuticals, St. Lous Mo.), or PHA plus 10^-8-10^-5 M astaxanthin (Natural Alternatives International (NAI) Inc., San Marcos Calif.); or ginkgolide B 10^-8-10^-6 M (NAI San Marcos Calif.); or selected combinations of ASX plus GB. Comparison of ASX and GB effects on T cell activation were made with two other pharmacological agents with anti-asthmatic properties by treating cells with 10^-7-10^-4 M cetirizine dihydrochloride (Pfizer Pharmaceuticals, Norwich Conn.); or 10^-7-10^-4 M azalestine hydrochloride (Wallace Pharmaceuticals, Somerset N.J.), followed by evaluation of cultures for the same biological endpoints as ASX/GB-treated cells. Each reagent was added at the outset of a 24 hours culture period, followed by harvest of cellular fraction for immunophenotyping studies. […] Two-color Flow cytometry was conducted using a Coulter Epics XL automated flow cytometer (Coulter Scientific, Hialeah, Fla., USA). Isotypic controls for the monoclonal antibodies (mAb) used to detect antigens of interest were established for each cell preparation. Positive analysis regions for cells expressing specific surface markers were set against controls and specific binding of fluorophore-conjugated mAb was analyzed by cytofluorography according to standard methods recommended by the manufacturer. Lymphocyte subpopulations were identified by position on forward and side scatter plots and live-gated. Expression of each antigen was reported as percentage cells positive for a particular T cell subpopulation defined by expression of CD3 (T lymphocyte marker) plus CD25, plus or minus standard error. Statistical analysis was performed using an independent t-test. All statistical analyses were performed using the SPSS for Windows statistical package (Norusis/SPSS, Inc.). […] The capacity of formulations evaluated in this study to suppress immune activation was measured as a stimulation index (SI), defined as the ratio of […].

[2] = system: CD3+HLA-DR+ lymphocytes in human PBMC; assay: PHA-mediated induction of CD3+HLA-DR+ lymphocytes in human PBMC (Example 8); assay type: cell-based; conditions: PHA 50 μg/ml, 24 hours
Procedure: (§1) Cells from 3-12 asthma patients were cultured 24 hours with 50 μg/ml PHA. PBMC evaluated by 2-color flow cytometry were gated for CD3+ and analyzed for CD3+CD25+ or CD3+HLA-DR+ as a percentage of the CD3+ population. Results are reported as stimulation indices (SI) calculated as the ratio of % CD3+CD25+ cells or % CD3+HLA-DR+ cells in fully-stimulated cultures to % CD3+CD25+ or % CD3+HLA-DR+ respectively in cells treated with PHA plus ASX, GB, or combinations thereof.

[3] = system: ovalbumin(OA)-induced asthma in guinea pigs; assay: Ovalbumin-induced asthma in guinea pigs: inflammatory cells in BAL fluid; assay type: in vivo, guinea pig; conditions: components used separately: 10 mg/kg AX, 200 mg/kg vit C, 10 mg/kg GB
Procedure: The effect combinations of vitamin C, astaxanthin, and ginkolide on asthma-associated disease parameters ovalbumin(OA)-induced asthma in guinea pigs was evaluated. Twenty-four hours following OA challenge, animals are sacrificed and numbers of inflammatory cells (eosinophils, neutrophils, macrophages) are measured in bronchoalveolar lavage (BAL) fluid; and cAMP and cGMP concentrations in the lung tissue. The experiments were carried out as follows. Male Hartley guinea pigs (250-350 g) were sensitized by intramuscular injections of 0.35 ml of a 5% (W/V) ovalbumin (OA)/saline solution into each thigh on days 1 and 4. Guinea pigs were ready for asthmatic challenge after 25 days of ovalbumin injection. Asthmatic challenge was carried out with ovalbumin aerosol, and bronchoalveolar lavage (BAL) was done 24 hours later. The numbers of eosinophils, neutrophils, and macrophages in the BAL fluid were counted. Twenty-four hours after the aerosol OA challenge, guinea pigs were killed by cervical dislocation and exsanguinated by severing the axillary arteries. Lungs were lavaged with 50 ml of DulBecco's phosphate-buffered saline (aliquots of 10 ml), which were aspirated after gentle chest massage. BAL fluid was centrifuged at 2200 rpm (1100×g) for 10 min, supernatant was aspirated, and pellets were resuspended in 5 ml 0.25% NaCl to lyse residual erythrocytes. This dispersion was centrifuged at 2200 rpm (1100×g) for 10 min, supernatant was aspirated, and pellets were resuspended 5 ml 0.9% NaCl. Total cell counts were done by hemocytometry using trypan blue stain. Slides were prepared on a Shandon Cytospin 2 (Pittsburgh, Pa.) at 300 rpm for 5 min, fixed and stained. Differential cell counts were done using standard morphologic criteria to classify cells as eosinophils, neutrophils, or macrophages, and the results were expressed in cell numbers. The dose-responsive effect of AX, EGb761, and vitamin C administered independently for suppression of asthma-associated parameters in allergen-induced, asthmatic guinea pigs was determined. Ibuprophen (IB) was used as the positive control. Concentration of inflammatory cells in bronchoalveolar lavage (BAL) fluid and levels of cAMP and cGMP in lung tissue were measured in guinea pigs 24 hours following challenge with OV. Data is reported as mean±SD of measurements taken in 6 animals per dosage cohort. *p<0.05 compared to corresponding values of OV antigen-challenged, drug-free control group. The dose-responsive effect of AX, EGb761, and vitamin C administered in combination for suppression of asthma-associated parameters in allergen-induced, asthmatic guinea pigs was determined. The combination of these three components was given each day for each guinea pig as a “cocktail”. Concentration of inflammatory cells in bronchoalveolar lavage (BAL) fluid and levels of cAMP and cGMP in lung tissue were measured in guinea pigs 24 hours following challenge with OV. Data is reported as mean±SD of measurements taken in 6 animals per dosage cohort. *p<0.05 compared to corresponding values of OV antigen-challenged, drug-free control group.

[4] = system: CD3+CD25+ T lymphocytes in human PBMC; assay: PHA induction of CD25+ on CD3+ T cells, PBMC from asthma patients (Example 5); assay type: cell-based; conditions: PHA 50 μg/ml, 24 hours
Procedure: (§2) Experiments were carried out to determine whether the immunoregulatory capacity of two commonly-used H1-inhibitory antihistamines: cetirizine dihydrochloride (CTZ/Zyrtec) and azelastine ([…]) is potentiated by the platelet activating factor receptor (PAFR) antagonist and free radical scavenger Ginkgolide B (GB). […] Each drug was first evaluated independently over a 3-log dose range from 10^-8-10^-6 M.

[5] = system: CD3+CD25+ lymphocytes in human PBMC; assay: PHA-mediated induction of CD3+CD25+ lymphocytes in human PBMC (Example 8); assay type: cell-based; conditions: PHA 50 μg/ml, 24 hours
Procedure: as §1

[6] = system: CD3+HLA-DR+ T lymphocytes in human PBMC; assay: PHA induction of HLA-DR+ on CD3+ T cells, PBMC from asthma patients (Example 5); assay type: cell-based; conditions: for SI HLA-DR: PHA 50 μg/ml, 24 hours
Procedure: as §2

TNF-α = TNF-α expression by PHA-stimulated human PBMC, ELISA of supernatant; assay type: cell-based; conditions: PHA 50 μg/ml, 24 hours; 10^−4 M
Procedure: PBMC (2×10^6/ml) from 2 donors were stimulated with 50 μg/ml, PHA; or with astaxanthin (10^−6 M); or with the ginkgolide BN52021 (GB) (10^−4 M); or with a combination of astaxanthin (10^−6 M) plus GB (10^−4 M); or with media. Cells were cultured 24 hours at 37° C., 5% CO2 and analyzed by ELISA for supernatant concentration of TNF-α. Each data point is the mean of triplicate samples.

PAF = PAF (Homo sapiens, UniProt P25105); conditions: cited from earlier work
Sequence of PAF (P25105 whole entry): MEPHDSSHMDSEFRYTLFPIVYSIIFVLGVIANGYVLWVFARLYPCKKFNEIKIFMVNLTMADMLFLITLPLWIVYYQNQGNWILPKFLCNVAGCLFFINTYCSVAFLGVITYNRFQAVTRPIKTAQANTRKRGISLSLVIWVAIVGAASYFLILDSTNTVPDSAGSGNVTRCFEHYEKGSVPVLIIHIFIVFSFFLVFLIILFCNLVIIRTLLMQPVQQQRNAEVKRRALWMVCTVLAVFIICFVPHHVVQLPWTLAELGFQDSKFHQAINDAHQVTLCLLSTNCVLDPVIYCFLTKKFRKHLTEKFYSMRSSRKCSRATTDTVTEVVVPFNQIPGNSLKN

For `COc1ccc(-c2cc(=O)c3c(O)cc(O)c(-c4cc(-c5cc(=O)c6c(O)cc(OC)cc6o5)ccc4OC)c3o2)cc1` [sciadopitysin], the “degree of enzyme inhibition (cAMP-phosphodiesterase), order” value (cAMP-phosphodiesterase) is listed as “almost no capacity for inhibition”.

In the case of `COc1ccc(C2CNC(=O)C2)cc1OC1CCCC1` (centres unmarked) [rolipram], the infiltrate of eosinophils (eosinophils) is listed as “significantly suppressed infiltrate”.

In the case of `CC1C(=O)OC2C(O)C34C5CC(C(C)(C)C)C36C(OC(=O)C6O)OC4(C(=O)O5)C12O` (centres unmarked) [GB, Ginkgolide B], the “SI (CD3+CD25+)” value ([1]; 10^−6 M) was 0.77±0.12, the “SI (CD3+CD25+)” value ([1]; 10^−8 M) was 0.86±0.07 and the “CD3+HLA-DR+ Stimulation Index” value ([2]; 10^−6 M) was 0.66 ± 0.06. The “CD3+HLA-DR+ Stimulation Index” value ([2]; 10^−7 M) was 0.78 ± 0.20, the “CD3+HLA-DR+ Stimulation Index” value ([2]; 10^−8 M) was 0.73 ± 0.12 and the “protection against OV-induced asthma” value [3] was “failed to protect; also recorded: failed to reduce the severity of asthma”. For the same molecule, the “SI CD25” value ([4]; 10^−6 M) was 0.94 ± 0.12, the “SI CD25” value ([4]; 10^−7 M) was 1.18 ± 0.21 and the “SI CD25” value ([4]; 10^−8 M) was 0.81 ± 0.14. The “CD3+CD25+ Stimulation Index” value ([5]; 10^−6 M) was 0.83 ± 1.0, the “CD3+CD25+ Stimulation Index” value ([5]; 10^−7 M) was 0.92 ± 0.08 and the “CD3+CD25+ Stimulation Index” value ([5]; 10^−8 M) was 0.90 ± 0.07. For the same molecule, the “decrease in SI for HLA-DR” value ([6]; 10^−8 M) was 39%, the “SI HLA-DR” value ([6]; 10^−6 M) was 0.72 ± 0.18 and the “SI HLA-DR” value ([6]; 10^−7 M) was 0.62 ± 0.18. The “SI HLA-DR” value ([6]; 10^−8 M) was 0.61 ± 0.10 and the TNF-alpha (TNF-α) was 1689.21 pg/mL.

In the case of `COc1ccc(NC(=S)N2CCc3c(sc4c3C(c3ccccc3Cl)=NCc3nnc(C)n3-4)C2)cc1` [BN 50730], the “PAF antagonistic activity in vitro compared with BN52021” value (PAF) is listed as “several ten-folds more potent”.
